The source made the active and inactive calls.
Columns and labels:
[1] = microbe, parasite or virus in culture; format: functional; conditions: Mycobacterium tuberculosis
[2] = test system: Streptococcus sp. 'group A'; experiment: growth inhibition of control SK(-) GAS strain, dose response, counter-screen for streptokinase expression inhibitor project, luminescence, kanamycin, BacTiterGlo, confirmation (AID 1900); format: functional, organism-based
H9c2 = experiment: cells; format: functional, cell-based; conditions: Rattus norvegicus, H9c2, Myocardium;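 note: confirmatory concentration-response retest of ultra-high-throughput screening hits for modulation of myocardial damage; cell death induced by hydrogen peroxide oxidative stress; compound pretreatment for 60 min then peroxide exposure for 2 h; potency is for protecting the cells against peroxide damage rather than for killing them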
Streptococcus = experiment: Group A Streptococcus viability loss, dose response, counter-screen for streptokinase expression inhibitor project, luminescence, BacTiterGlo (AID 1915); format: functional, organism-based;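 note: potency for reduction of bacterial viability or growth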
Streptokinase A = target: T1, Streptokinase A (Streptococcus pyogenes serotype M1, UniProt P10520); experiment: S. pyogenes streptokinase expression inhibitors, potency, dose response, plasminogen activation absorbance, OD405 (AID 1914); format: functional, Streptococcus pyogenes M1 GAS;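 note: secreted streptokinase activity via plasminogen activation per viability signal from cell pellet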
T1 sequence (P10520 whole entry): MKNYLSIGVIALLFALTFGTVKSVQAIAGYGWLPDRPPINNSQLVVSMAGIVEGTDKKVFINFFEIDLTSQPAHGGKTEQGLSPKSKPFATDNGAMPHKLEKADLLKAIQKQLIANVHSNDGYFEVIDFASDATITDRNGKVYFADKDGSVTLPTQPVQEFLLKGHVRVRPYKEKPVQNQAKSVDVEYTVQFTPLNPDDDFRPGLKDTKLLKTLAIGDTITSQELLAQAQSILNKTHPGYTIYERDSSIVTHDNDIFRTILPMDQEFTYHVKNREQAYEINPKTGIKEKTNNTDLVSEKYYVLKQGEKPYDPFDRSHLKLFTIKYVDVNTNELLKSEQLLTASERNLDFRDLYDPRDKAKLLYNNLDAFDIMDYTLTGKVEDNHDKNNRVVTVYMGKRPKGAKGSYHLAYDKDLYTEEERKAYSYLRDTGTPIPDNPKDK

Protein skinhead-1 = target: T2, Protein skinhead-1 (Caenorhabditis elegans, UniProt P34707); format: functional
T2 sequence (P34707 whole entry): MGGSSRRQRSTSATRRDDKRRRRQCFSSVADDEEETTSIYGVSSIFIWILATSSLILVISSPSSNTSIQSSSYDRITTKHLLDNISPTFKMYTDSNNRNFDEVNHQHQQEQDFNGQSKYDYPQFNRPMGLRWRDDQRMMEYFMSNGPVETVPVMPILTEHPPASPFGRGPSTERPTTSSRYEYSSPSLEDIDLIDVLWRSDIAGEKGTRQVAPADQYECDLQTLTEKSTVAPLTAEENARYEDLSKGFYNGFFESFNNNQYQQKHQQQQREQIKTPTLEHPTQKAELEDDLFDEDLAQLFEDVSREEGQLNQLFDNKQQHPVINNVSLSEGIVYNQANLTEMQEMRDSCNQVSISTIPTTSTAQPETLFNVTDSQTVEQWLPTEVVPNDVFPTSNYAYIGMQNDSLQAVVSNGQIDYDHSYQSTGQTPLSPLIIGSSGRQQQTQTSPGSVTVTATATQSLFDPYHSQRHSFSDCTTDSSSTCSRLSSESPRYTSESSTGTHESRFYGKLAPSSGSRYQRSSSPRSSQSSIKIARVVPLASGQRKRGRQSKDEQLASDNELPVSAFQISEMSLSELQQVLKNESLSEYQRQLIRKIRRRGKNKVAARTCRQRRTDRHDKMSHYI

[3] = Shn3 3'UTR reporter inhibitors, dose response, cell-based, Clone20 osteoblasts, firefly luciferase, cherry-picked (AID 624132); format: functional;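 note: firefly luciferase luminescence from reporter carrying the Shn3 3'UTR in osteoblasts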
[4] = control 3'UTR Renilla luciferase suppression, dose response, counter-screen for Shn3 inhibitor project, cell-based, Clone20-Shn3RL, cherry-picked (AID 624133); format: functional
[5] = HepG2 cell cytotoxicity, dose response, cytotoxicity control for Shn3 inhibitor project, CellTiter-Glo, cherry-picked (AID 624134); format: functional, cell-based
Fatty acid synthase [6] = target: T3, Fatty acid synthase (Homo sapiens, UniProt P49327); experiment: FAS thioesterase domain inhibitors, dose response, biochemical, endpoint fluorescence intensity, uHTS hits (AID 624327); format: functional;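 note: fluorescence from hydrolysis of an O-methyl fluorescein acyl ester substrate by the enzyme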
Fatty acid synthase [7] = target: T3, Fatty acid synthase; experiment: FAS thioesterase domain inhibitors, dose response, biochemical, kinetic fluorescence intensity (AID 624326); format: functional;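 note: rate of fluorescence rise from hydrolysis of a fluorogenic O-methyl fluorescein ester substrate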
Nonstructural protein 1 = Nonstructural protein 1 (Influenza A virus, UniProt Q194T2); format: functional, Influenza A virus (A/California/07/2009(H1N1))
Chain of Nonstructural protein 1 (Q194T2 whole entry): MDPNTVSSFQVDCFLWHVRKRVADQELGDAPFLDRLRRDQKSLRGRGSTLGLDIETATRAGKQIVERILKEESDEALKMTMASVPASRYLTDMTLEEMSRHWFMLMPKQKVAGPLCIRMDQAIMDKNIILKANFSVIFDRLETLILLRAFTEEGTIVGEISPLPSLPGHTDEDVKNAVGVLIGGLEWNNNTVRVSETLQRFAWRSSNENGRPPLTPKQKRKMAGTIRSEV

[8] = target: Voltage-dependent T-type calcium channel subunit alpha-1H (Homo sapiens, UniProt O95180); format: functional;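 note: channel activity triggered by adding a high calcium stimulation buffer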
Chain of Voltage-dependent T-type calcium channel subunit alpha-1H (O95180 whole entry): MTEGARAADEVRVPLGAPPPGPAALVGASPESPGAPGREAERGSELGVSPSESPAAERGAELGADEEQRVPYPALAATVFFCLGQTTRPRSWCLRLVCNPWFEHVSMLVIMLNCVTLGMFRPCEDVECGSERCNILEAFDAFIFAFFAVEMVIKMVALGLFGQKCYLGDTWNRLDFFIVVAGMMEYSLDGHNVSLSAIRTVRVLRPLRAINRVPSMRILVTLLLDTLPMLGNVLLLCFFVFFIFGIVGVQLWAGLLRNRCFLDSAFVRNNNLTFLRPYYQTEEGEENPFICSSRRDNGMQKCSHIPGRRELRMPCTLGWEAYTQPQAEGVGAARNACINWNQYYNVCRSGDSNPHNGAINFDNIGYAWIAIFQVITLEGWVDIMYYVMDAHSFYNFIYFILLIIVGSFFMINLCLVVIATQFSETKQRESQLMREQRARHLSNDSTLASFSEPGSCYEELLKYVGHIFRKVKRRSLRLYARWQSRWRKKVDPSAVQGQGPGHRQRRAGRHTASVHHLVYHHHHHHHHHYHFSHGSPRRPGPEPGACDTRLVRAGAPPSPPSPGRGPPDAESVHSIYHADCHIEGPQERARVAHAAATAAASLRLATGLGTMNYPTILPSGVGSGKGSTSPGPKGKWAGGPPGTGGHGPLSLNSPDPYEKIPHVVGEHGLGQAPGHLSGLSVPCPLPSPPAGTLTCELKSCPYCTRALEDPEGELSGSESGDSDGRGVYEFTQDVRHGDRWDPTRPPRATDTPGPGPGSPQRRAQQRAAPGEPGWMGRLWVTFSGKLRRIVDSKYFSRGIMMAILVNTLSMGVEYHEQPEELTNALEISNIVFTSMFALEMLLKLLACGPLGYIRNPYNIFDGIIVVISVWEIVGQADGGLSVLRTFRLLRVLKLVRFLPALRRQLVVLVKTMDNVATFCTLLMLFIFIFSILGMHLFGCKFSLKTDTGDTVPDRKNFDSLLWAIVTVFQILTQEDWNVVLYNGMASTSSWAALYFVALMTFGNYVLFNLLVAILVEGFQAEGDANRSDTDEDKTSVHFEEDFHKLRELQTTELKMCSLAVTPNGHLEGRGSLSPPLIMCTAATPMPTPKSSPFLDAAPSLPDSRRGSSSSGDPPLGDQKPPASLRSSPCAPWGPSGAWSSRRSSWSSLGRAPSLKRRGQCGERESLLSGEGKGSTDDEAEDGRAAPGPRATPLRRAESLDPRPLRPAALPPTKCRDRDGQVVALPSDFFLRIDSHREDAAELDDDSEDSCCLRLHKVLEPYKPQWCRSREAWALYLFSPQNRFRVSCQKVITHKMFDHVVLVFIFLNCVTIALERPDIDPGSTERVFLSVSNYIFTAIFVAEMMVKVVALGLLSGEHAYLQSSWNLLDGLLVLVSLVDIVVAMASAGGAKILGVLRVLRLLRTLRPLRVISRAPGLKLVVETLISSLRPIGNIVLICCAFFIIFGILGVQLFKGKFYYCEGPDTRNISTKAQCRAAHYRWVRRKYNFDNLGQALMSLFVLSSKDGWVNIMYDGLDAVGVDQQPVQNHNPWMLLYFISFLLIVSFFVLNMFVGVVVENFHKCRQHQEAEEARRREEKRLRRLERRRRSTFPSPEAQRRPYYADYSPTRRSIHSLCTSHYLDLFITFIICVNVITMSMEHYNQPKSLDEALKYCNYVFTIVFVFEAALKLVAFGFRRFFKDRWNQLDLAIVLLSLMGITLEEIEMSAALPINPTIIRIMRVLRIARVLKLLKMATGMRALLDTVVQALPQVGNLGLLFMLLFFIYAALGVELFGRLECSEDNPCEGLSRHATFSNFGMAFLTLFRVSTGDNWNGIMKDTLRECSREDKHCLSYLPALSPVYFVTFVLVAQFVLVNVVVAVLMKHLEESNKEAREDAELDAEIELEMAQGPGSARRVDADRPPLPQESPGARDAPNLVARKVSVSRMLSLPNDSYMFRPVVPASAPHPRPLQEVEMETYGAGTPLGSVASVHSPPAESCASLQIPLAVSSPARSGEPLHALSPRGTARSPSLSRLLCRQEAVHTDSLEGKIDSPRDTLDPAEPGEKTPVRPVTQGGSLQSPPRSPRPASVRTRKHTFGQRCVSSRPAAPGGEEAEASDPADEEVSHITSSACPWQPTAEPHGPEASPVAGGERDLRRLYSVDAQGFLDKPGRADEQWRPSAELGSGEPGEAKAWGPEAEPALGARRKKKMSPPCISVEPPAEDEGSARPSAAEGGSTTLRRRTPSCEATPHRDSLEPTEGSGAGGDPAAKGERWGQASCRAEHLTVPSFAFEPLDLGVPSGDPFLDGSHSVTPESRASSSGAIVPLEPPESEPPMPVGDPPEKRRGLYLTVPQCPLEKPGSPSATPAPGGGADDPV

Cytochrome P450 2C19 = Cytochrome P450 2C19 (Homo sapiens, UniProt P33261); experiment: Cytochrome panel assay with activity outcomes. Panel member name: p450-cyp2c19 Compounds with AC50 equal or less than 10 uM are considered active; format: functional; conditions: read-out: AC50
Chain of Cytochrome P450 2C19 (P33261 whole entry): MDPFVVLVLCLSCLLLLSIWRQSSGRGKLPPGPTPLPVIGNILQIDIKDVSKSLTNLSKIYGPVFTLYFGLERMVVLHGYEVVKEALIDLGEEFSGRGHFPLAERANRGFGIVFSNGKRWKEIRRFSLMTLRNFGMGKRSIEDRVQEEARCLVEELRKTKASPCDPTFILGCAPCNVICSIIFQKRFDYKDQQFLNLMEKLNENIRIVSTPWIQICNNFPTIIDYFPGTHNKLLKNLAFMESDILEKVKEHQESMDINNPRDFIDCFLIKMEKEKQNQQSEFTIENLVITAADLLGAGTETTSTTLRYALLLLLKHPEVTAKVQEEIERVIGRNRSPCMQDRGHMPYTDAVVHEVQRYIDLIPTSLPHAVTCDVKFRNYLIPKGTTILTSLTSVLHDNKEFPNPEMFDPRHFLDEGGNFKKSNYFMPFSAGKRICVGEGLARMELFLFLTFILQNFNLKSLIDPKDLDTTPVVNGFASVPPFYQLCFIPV

[9] = target: T4, Polyadenylate-binding protein 1 (Homo sapiens, UniProt P11940); experiment: PABP1 MLLE–PAM2 binding inhibitor potency, dose response, biochemical, fluorescence polarization, FITC-PAM2 peptide (AID 602259); format: functional; conditions: read-out: IC50_Mean
T4 sequence (P11940 whole entry): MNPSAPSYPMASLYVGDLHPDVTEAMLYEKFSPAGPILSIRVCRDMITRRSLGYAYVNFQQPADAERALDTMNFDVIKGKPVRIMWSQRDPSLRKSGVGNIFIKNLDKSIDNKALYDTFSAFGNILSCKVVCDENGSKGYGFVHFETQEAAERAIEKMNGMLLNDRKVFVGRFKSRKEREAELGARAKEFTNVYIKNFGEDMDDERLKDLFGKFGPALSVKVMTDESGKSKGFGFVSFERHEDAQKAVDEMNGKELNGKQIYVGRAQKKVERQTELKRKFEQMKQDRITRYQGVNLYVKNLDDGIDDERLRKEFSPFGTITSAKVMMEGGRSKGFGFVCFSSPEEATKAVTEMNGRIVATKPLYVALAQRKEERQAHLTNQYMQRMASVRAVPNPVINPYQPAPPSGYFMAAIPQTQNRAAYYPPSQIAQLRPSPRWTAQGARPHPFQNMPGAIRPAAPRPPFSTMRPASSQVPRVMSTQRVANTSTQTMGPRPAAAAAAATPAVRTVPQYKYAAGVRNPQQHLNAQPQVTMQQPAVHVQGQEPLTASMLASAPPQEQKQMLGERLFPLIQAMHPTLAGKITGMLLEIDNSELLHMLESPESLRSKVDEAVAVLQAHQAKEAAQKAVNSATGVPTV

[10] = target: T4, Polyadenylate-binding protein 1; experiment: PABP1 MLLE–PAM2 interaction inhibitors, dose response, miRNA deadenylation inhibitor project, biochemical, fluorescence polarization, Cy5-PAM2 peptide, secondary (AID 602260); format: functional; conditions: read-out: IC50_Mean
INS1 = experiment: beta cell apoptosis inhibitors, cytokine rescue, dose response, luminescence, retest (AID 449756); format: functional, cell-based; conditions: Rattus norvegicus;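 note: cell death triggered by IL-1 beta plus TNF-alpha plus IFN-gamma mixture; protective hits raise ATP signal compared with cytokine alone wells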
[11] = Luminescence Cell-Based Dose Retest to Confirm Inhibitors of Cancer Stem Cells. [Related pubchem assays (depositor defined):AID2717, AID2721]; format: functional; conditions: Homo sapiens
Cytochrome P450 2D6 = Cytochrome P450 2D6 (Homo sapiens, UniProt P10635);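 note: CYP2D6 member of a cytochrome P450 panel assay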
Chain of Cytochrome P450 2D6 (P10635 whole entry): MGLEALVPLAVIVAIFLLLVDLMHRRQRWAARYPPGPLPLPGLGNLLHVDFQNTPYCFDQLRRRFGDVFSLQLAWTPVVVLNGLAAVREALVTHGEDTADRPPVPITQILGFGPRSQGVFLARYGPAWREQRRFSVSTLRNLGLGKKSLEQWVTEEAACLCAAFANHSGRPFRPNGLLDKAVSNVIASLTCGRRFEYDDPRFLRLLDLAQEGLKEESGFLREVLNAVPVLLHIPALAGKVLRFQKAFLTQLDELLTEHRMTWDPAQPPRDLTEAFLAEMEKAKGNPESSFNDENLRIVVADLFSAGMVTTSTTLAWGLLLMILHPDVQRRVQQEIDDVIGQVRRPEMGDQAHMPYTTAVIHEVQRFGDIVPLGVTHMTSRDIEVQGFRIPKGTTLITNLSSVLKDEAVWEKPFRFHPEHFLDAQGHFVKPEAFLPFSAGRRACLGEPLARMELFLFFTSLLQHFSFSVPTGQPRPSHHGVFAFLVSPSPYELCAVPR

Cytochrome P450 1A2 = target: T5, Cytochrome P450 1A2 (Homo sapiens, UniProt P05177);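 note: PubChem cytochrome P450 panel assay, CYP1A2 panel member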
T5 sequence (P05177 whole entry): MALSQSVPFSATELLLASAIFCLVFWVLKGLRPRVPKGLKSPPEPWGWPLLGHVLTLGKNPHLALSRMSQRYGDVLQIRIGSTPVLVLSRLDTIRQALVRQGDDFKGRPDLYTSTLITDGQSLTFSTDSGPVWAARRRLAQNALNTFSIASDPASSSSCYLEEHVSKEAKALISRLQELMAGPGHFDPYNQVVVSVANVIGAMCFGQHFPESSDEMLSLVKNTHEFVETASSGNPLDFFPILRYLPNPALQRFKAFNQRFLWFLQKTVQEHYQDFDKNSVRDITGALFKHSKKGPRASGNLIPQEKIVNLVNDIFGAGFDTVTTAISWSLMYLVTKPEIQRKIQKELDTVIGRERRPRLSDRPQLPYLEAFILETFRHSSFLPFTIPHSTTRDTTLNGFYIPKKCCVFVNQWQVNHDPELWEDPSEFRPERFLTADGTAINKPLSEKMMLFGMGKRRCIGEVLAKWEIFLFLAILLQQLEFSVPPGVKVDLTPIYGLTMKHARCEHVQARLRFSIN

COc1ccc(-c2nc(NC(=O)c3[nH]c(C)c(C(C)=O)c3C)sc2C)cc1
CC50 [1]: > 40 µM (active)

CC(OC(=O)Cc1nnc(O)c2ccccc12)C(=O)Nc1ccc(Cl)cn1 (stereo not drawn)
EC50 [2]: 9.99 µM (active) | IC50 (H9c2): 7.17 µM (active) | EC50 (Streptococcus): 23.1 µM (active) | EC50 (Streptokinase A): > 150 µM (not active)

O=C(Nc1nc2c(s1)CCc1ccccc1-2)c1ccco1
IC50 (Protein skinhead-1): > 100 µM (inactive)

Fc1ccc2[nH]c3c(NCc4ccccc4)ncnc3c2c1
CC50 [1]: > 40 µM (active) | AC50 [3]: 3.09 µM (active) | AC50 [4]: 13.1 µM (active) | AC50 [5]: 30.1 µM (active)

O=[N+]([O-])c1ccc(Nc2ccccc2)cc1
IC50 (Protein skinhead-1): 12.7 µM (active)

O=C(COc1ncnc2ccccc12)Nc1ccc(Cl)c([N+](=O)[O-])c1
IC50 (Fatty acid synthase [6]): 8.42 µM (active) | IC50 (Fatty acid synthase [7]): 6.52 µM (active)

Cc1ccc(NC(=O)CSc2n[nH]c(-c3ccccn3)n2)cc1
IC50 (Nonstructural protein 1): 6.74 µM (active)

O=C(Nc1ccccc1)N1CCCC(c2nc(-c3ccc(F)cc3)no2)C1 (stereo not drawn)
EC50 [8]: 1.52 µM (active) | AC50 (Cytochrome P450 2C19): 39.8 µM (inconclusive)

S=C(NC1CCCCC1)N(CCc1nc2ccccc2[nH]1)C1CCCC1
EC50 [8]: 5.18 µM (active)

Cc1[nH]c2ccccc2c1C1C(c2ccccc2)=NN=C(C(C)C)N1O (stereo not drawn)
EC50 [8]: 16.1 µM (active)

NC(=NOC(=O)CCC1CCCC1)c1cccc([N+](=O)[O-])c1
IC50 (Fatty acid synthase [6]): 7.47 µM (active) | IC50 (Fatty acid synthase [7]): 4.54 µM (active)

CC(c1ccccc1)N1C(=O)c2cccnc2C1=O (stereo not drawn)
IC50 (Protein skinhead-1): > 100 µM (inactive)

CCCCNC(=O)CN1C(=O)c2cccc(N)c2C1=O
IC50 [9]: 31.6 µM (inactive) | IC50 [10]: > 66 µM (inactive)

CCOC(=O)N1CCN(S(=O)(=O)c2ccc(C(=O)NNc3nc4cc(C)cc(C)c4s3)cc2)CC1
AC50 (INS1): 3.67 µM (active) | AC50 [11]: 3.69 µM (active) | IC50 (Nonstructural protein 1): > 100 µM (active)

COC(=O)[C@@]12CCCCN1[C@H](c1ccc(-c3cc(C(C)=O)cs3)cc1)[C@H]1C(=O)N(C)C(=O)[C@H]12
IC50 (H9c2): > 79 µM (inactive)

CC(Sc1nnc(NC2CCCCC2)s1)C(=O)Nc1ccc2c(c1)C(=O)c1ccccc1C2=O (stereo not drawn)
CC50 [1]: 29.7 µM (active)

CCCn1c(=O)c(C(=O)NCCc2ccc(Cl)cc2)c(O)c2ccccc21
IC50 (H9c2): > 79 µM (inactive)

O=C(CSC(=S)N1CCCC1)c1cc(Br)cc(Br)c1O
CC50 [1]: > 40 µM (active)

C=C(C)CSc1ncc(-c2cccc(C(F)(F)F)c2)cn1
IC50 (Fatty acid synthase [6]): 13.3 µM (active) | IC50 (Fatty acid synthase [7]): 6.31 µM (active)

Cc1ccc(N(C)C(=O)Oc2cccc3ccc(C)nc23)cc1
EC50 [8]: 12.3 µM (active)

O=C(CCn1c(=O)oc2ccccc21)N(Cc1ccccc1)c1ccccc1
IC50 (H9c2): > 79 µM (inactive)

CCN(CC)S(=O)(=O)c1ccc(N(C)CCc2ccc(OC)c(OC)c2)nc1
IC50 (Protein skinhead-1): > 100 µM (inactive)

COc1ccc(-c2cc(C(=O)N(C)CC(=O)Nc3cccc(F)c3)c3ccccc3n2)cc1
CC50 [1]: 36.5 µM (active)

O=C(CN(Cc1ccccc1)C(=O)c1cc2c(s1)CCC2)NCc1cccs1
EC50 [8]: 5.32 µM (active)

COC(=O)c1nc(-c2ccccc2)oc1N(C)C
IC50 (Protein skinhead-1): > 100 µM (inactive)

O=C(COc1ccccc1)Nc1nnc(-c2ccc(Cl)s2)o1
EC50 [8]: 25.7 µM (active)

O=C(Oc1ccccc1)N1CCN(c2ccc(F)cc2)CC1
IC50 (Protein skinhead-1): 78.7 µM (inactive)

O=[N+]([O-])c1cccc(-c2ccc(SCc3cccnc3)nn2)c1
IC50 (Fatty acid synthase [6]): 8.53 µM (active) | IC50 (Fatty acid synthase [7]): 8.99 µM (active)

COc1ccc(-c2cc(-c3nnc(COC(=O)c4ccncc4)o3)c3ccccc3n2)cc1OC
IC50 (H9c2): 9.82 µM (active)

S=C(NCc1ccccc1)NCC1COc2ccccc2O1 (stereo not drawn)
EC50 [8]: 3.17 µM (active)

C=CCNc1ncnc2sc(SC)nc12
IC50 (Protein skinhead-1): > 100 µM (inactive)

CC(CC(=O)Nc1nnc(C(C)(C)C)s1)c1ccccc1 (stereo not drawn)
IC50 [9]: > 66 µM (inactive) | IC50 [10]: > 66 µM (inactive)

CC(C)(C)NC(=O)/C(=C\C=C\c1ccccc1)NC(=O)c1ccc([N+](=O)[O-])cc1
IC50 (Fatty acid synthase [6]): 0.491 µM (active) | IC50 (Fatty acid synthase [7]): 0.462 µM (active)

O=C(Nc1nccs1)c1ccc(-c2ccccc2[N+](=O)[O-])o1
IC50 (Protein skinhead-1): > 100 µM (inactive)

CC(=O)c1ccc(NC(S)=NCCc2ccc(S(N)(=O)=O)cc2)cc1
IC50 [9]: > 66 µM (inactive) | IC50 [10]: > 66 µM (inactive)

c1ccc(CN2c3ccccc3-c3nc4ccccc4n3C2c2ccccn2)cc1 (stereo not drawn)
EC50 [8]: 1.94 µM (active) | AC50 (Cytochrome P450 2D6): 15.8 µM (inconclusive)

Oc1ccccc1C=NNC(=S)Nc1ccc(F)cc1
IC50 (Nonstructural protein 1): 12.7 µM (active)

O=C(NNS(=O)(=O)c1ccc([N+](=O)[O-])cc1)c1ccc2ccccc2c1O
IC50 (Fatty acid synthase [6]): 7.74 µM (active) | IC50 (Fatty acid synthase [7]): 6.99 µM (active)

c1ccc(P(c2ccccc2)c2ccccn2)cc1
IC50 [9]: > 66 µM (inactive) | IC50 [10]: > 66 µM (inactive)

COc1cccc(C(=O)NCC(=O)N2CCC3(CC2)NCCc2[nH]cnc23)c1
IC50 (Protein skinhead-1): > 100 µM (inactive)

COc1cccc(/C=N/NC(=O)c2nc(-c3ccccc3)cc(-c3ccccc3)n2)c1
AC50 (Cytochrome P450 1A2): 3.16 µM (inconclusive) | IC50 (H9c2): > 79 µM (inactive) | AC50 (Cytochrome P450 2C19): 0.794 µM (inconclusive)
